Experimental findings from US20230416261A1, “ETHANEDIAMINE-HETEROCYCLE DERIVATIVES AS INHIBITORS OF PROTEIN ARGININE METHYLTRANSFERASES” (Board of Regents, The University of Texas System, priority 2021, published 2023) are described below.

pIC50: −log10 of the molar value.

Experiment [1] concerns the target T1, PRMT1 (Homo sapiens, UniProt Q99873). Description: PRMT1 RKO Cellular Target Engagement Assay (In-Cell Western, asymmetric di-methyl arginine). Format: cell-based. As to conditions: RKO cells, 48 hr compound incubation; read-out: RKO IC50 (PRMT-1 Target Engagement). The method, then: RKO cells were routinely maintained in EMEM media (ATCC, Catalog #30-2003) supplemented with 10% fetal bovine serum (Sigma, Catalog #F2442) using a humidified incubator (37° C., 5% CO2, and ambient O2).
In preparation for the In-Cell Western assay, cells were harvested and resuspended in EMEM media supplemented with 10% fetal bovine serum. Cells were seeded onto a 384 well, black, clear bottom, Poly-D-Lysine coated tissue culture plate (Greiner, Catalog #781946) at a density of 1,000 cells/well in a volume of 40 μL. The culture plate was incubated for 24 hr at 37° C. with 5% CO2 and ambient O2. Stock solutions of the test compounds were prepared in 100% DMSO (Sigma, Catalog #D2650) and serially diluted 1:3 using 100% DMSO. Compounds were additionally diluted 1:40 in culture medium, and 10 μL/well was transferred to the tissue culture plate. Following the compound addition the microplate was incubated at 37° C. for 48 hr.
The media was removed, the plate was washed with 1× PBS (Fisher Bioreagents, Catalog #BP399-20), and cells were fixed for 10 min using 30 μL/well of 4% paraformaldehyde (Electron Microscopy Sciences, Catalog #15710). The paraformaldehyde was removed, the plate was again washed with 1× PBS, and cells were permeabilized for 15 min using 30 μL/well of 1× PBS containing 0.5% Triton-X 100 (Sigma, Catalog #1001748095). The permeabilization buffer was removed, the plate was washed with 1× PBST (Boston BioProducts, Catalog #IBB-171X), and 50 μL/well of blocking buffer (LI-COR, Catalog #927-40000) was added followed by a 1 hour incubation at room temperature. The blocking buffer was removed, and 20 μL/well of anti-asymmetric di-methyl arginine antibody (Cell Signaling, Catalog #13522S) diluted 1:1000 in LI-COR blocking buffer was added to the plate and incubated overnight, in the dark at 4° C.
The primary antibody was then removed, and the plate was washed three times with 1× PBST. 20 μL/well of CellTag (LI-COR, Catalog #926-41090) and IRDye 800CW goat anti-rabbit IgG antibody (LI-COR, Catalog #926-32211), each diluted 1:500 in LI-COR blocking buffer supplemented with 0.1% Tween-20 (Thermo Scientific, Catalog #85114), were added to the plate. The plate was then incubated in the dark, at room temperature for 1 hour followed by three washes with 1× PBST and one wash with H2O. The IRDye secondary antibody signal (800 channel) and the CellTag signal (700 channel) were measured using a Licor Odyssey Imager, and the 800 channel signal was then normalized to the 700 channel signal. IC50 values were calculated using a four-parameter logistic curve fit using Genedata Screener software.

A further experiment concerns DOHH2 cells. Description: DOHH2 Long Term Phenotypic Assay (7 days, Cell Titer-Glo viability). Format: cell-based. The settings on record: Homo sapiens, DOHH-2, 168 h, Cell Titer-Glo 2.0. The method, then: DOHH2 cells were kindly provided by Michael Green (MDACC). The cells were routinely maintained in RPMI-1640 Medium (ATCC, Catalog #30-2001) supplemented with 10% fetal bovine serum (Sigma, Catalog #F2442), 100 units/mL penicillin and 100 μg/mL streptomycin (Gibco, Catalog #15140-122) in a humidified incubator (37° C., 5% CO2). Cells were seeded onto a white, CulturPlate-384 (Perkin Elmer, catalog #6007680) at a density of 250 cells per well in a volume of 50 μL. Stock solutions of the test compounds were prepared in 100% DMSO (Sigma, Catalog #D2650) and serially diluted 1:3 using 100% DMSO. Compounds were additionally diluted 1:33 in culture medium, and 10 μL/well was transferred to the tissue culture plate. Following the compound addition, the plate was incubated at 37° C. and 5% CO2 for 7 days. Cells were then mixed and a 30 μL volume was removed. Viability was assessed by a 30 μL addition of Cell Titer-Glo 2.0 (Promega, catalog #G9243). The plate was then shaken on an orbital shaker at 300 RPM for 10 minutes at room temperature, in the dark. Luminescence was measured using a PerkinElmer Envision™ plate reader. IC50 values were calculated using a four-parameter logistic curve fit using Genedata Screener software.

For experiment [2], the target named is T1, PRMT1. Description: PRMT1 Enzymatic Assay (LANCE TR-FRET, methylation of histone H4 at Arg3). It is filed as biochemical. Further details: purchased SignalChem P365-380G. The settings on record: PRMT1 1.5 nM, SAM 1 μM, biotinylated histone H4 (1-21) 25 nM; read-out: PRMT-1 IC50. The method, then: In order to measure PRMT1 enzymatic activity the LANCE TR-FRET assay from PerkinElmer was used to follow the methylation of histone H4 at Arg3 using S-adenosyl-L-methionine (SAM) as the methyl group donor.
This enzymatic assay was performed in a 384 well, white, low volume plate (PerkinElmer, Catalog 6008289) with assay buffer consisting of 50 mM Hepes (pH 8) (Teknova, Catalog #H1090), 1 mM TCEP (Sigma, Catalog #C4706), and 0.003% Tween-20 (Thermo, Catalog #85114). Stock solutions of the test compounds were prepared in 100% DMSO (Sigma, Catalog #D2650) and serially diluted 1:3 using 100% DMSO. Compounds were additionally diluted 1:40 in assay buffer, and 2 uL/well were transferred to the assay plate. 4 uL/well (final concentration 1.5 nM) of PRMT1 protein (SignalChem, Catalog #P365-380G) diluted in assay buffer was added to the assay plate followed by a 15 min preincubation at room temperature. 4 uL/well of SAM (Sigma, Catalog #A7007) and biotinylated histone H4 (1-21) (AnaSpec, Catalog #62555) (final concentrations 1 μM and 25 nM, respectively) diluted in assay buffer were then added to the assay plate followed by a 1 hour reaction time. Final concentrations of PRMT1, SAM, and histone H4 (1-21) refer to a […].
Detection of methylated histone H4 (H4R^3me) was achieved by combining LANCE Ultra Europium-anti-H4R^3me antibody (PerkinElmer, Catalog #TRF04-14), LANCE Ultra ULight-anti-streptavidin antibody (PerkinElmer, Catalog #TRF0102), and sinefungin (Sigma, Catalog #S8559) (final concentrations 2 nM, 50 nM, and 100 μM respectively) in 1× LANCE detection buffer (PerkinElmer, Catalog #CR97-100) and adding L/well of the detection solution to the assay plate. Detection reagents were allowed to react for 1 hour at room temperature. Final concentrations in the detection solution refer to a L volume. The europium fluorescence signal and the ULight TR-FRET signal were measured using a BioTek Synergy Neo plate reader: excitation at 330 nm, emission at 620 nm and 665 nm respectively, and the ratio of the two signals (665 nm/620 nm) was used for curve fitting. IC50 values were calculated using a four-parameter logistic curve fit using Genedata Screener software.

T1 sequence (Q99873 whole entry): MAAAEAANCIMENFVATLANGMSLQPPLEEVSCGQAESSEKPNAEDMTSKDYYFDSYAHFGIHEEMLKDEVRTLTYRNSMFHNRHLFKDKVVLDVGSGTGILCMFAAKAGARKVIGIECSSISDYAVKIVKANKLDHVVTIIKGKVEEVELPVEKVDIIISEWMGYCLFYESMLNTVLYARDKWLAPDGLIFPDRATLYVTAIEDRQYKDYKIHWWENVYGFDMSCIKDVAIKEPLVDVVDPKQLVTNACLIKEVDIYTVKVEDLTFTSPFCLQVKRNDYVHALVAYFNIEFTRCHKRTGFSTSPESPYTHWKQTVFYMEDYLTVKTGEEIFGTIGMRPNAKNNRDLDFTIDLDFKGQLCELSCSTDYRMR

Consider `CCOC12CC(C(=O)N3CCn4nc(CN(C)CCNC)c(C5CCC(COC)(COC)CC5)c4C3)(C1)C2` [Example 26, (3-(4,4-bis(methoxymethyl)-cyclohexyl)-2-((methyl(2-(methylamino)ethyl)amino)-methyl)-6,7-dihydropyrazolo-[1,5-a]pyrazin-5(4H)-yl)(3-ethoxybicyclo[1.1.1]pentan-1-yl)methanone], for which the pIC50 on PRMT1 [1] is 5.62; with DOHH2 cells, 6.07; at PRMT1 [2], 6.36.

As for `CNCCN(C)Cc1nn2c(c1C1CCC(COC)(COC)CC1)CN(C(=O)C1CCCCC1)CC2` [Example 51, (3-(4,4-bis(methoxymethyl)-cyclohexyl)-2-((methyl(2-(methylamino)ethyl)amino)-methyl)-6,7-dihydropyrazolo-[1,5-a]pyrazin-5(4H)-yl)-(cyclohexyl)methanone], the pIC50 is 5.00 on PRMT1 [1], 7.12 with DOHH2 cells and 7.24 at PRMT1 [2].

As for `CNCCN(C)Cc1nn2c(c1C1CCC(COC)(COC)CC1)CN(C(=O)CC#N)CC2` [Example 52, 3-(3-(4,4-bis(methoxy-methyl)cyclohexyl)-2-((methyl(2-(methylamino)-ethyl)amino)methyl)-6,7-dihydropyrazolo[1,5-a]-pyrazin-5(4H)-yl)-3-oxopropanenitrile], the figures for the pIC50 at PRMT1 [1], in the experiment with DOHH2 cells and on PRMT1 [2] were 6.79, 6.29 and 7.15, respectively.

Take `CNCCN(C)Cc1nn2c(c1C1CCC(COC)(COC)CC1)CN(C(=O)C(C)(C)COC)CC2` [Example 54, 1-(3-(4,4-bis(methoxy-methyl)cyclohexyl)-2-((methyl(2-(methylamino)-ethyl)amino)methyl)-6,7-dihydropyrazolo[1,5-a]-pyrazin-5(4H)-yl)-3-methoxy-2,2-dimethylpropan-1-one]: the figures for the pIC50 at PRMT1 [1], in the experiment with DOHH2 cells and at PRMT1 [2] were 6.69, 6.53 and 6.99, respectively.

Regarding `CNCCN(C)Cc1nn2c(c1C1CCC(COC)(COC)CC1)CN(C(C)=O)CC2` [Example 55, 1-(3-(4,4-bis(methoxy-methyl)cyclohexyl)-2-((methyl(2-(methylamino)-ethyl)amino)methyl)-6,7-dihydropyrazolo[1,5-a]-pyrazin-5(4H)-yl)ethan-1-one], the results for the pIC50 at PRMT1 [1], in the experiment with DOHH2 cells and at PRMT1 [2] were 5.95, 6.53 and 7.15, respectively.

For `CNCCN(C)Cc1nn2c(c1C1CCC(COC)(COC)CC1)CN(C(=O)C1CCC(F)(F)C1)CC2` (stereo not drawn) [Example 56, (3-(4,4-bis(methoxymethyl)-cyclohexyl)-2-((methyl(2-(methylamino)ethyl)amino)-methyl)-6,7-dihydropyrazolo-[1,5-a]pyrazin-5(4H)-yl)(3,3-difluorocyclopentyl)-methanone], the pIC50 is 6.41 on PRMT1 [1], 7.08 in the experiment with DOHH2 cells and 7.27 on PRMT1 [2].

On to `CNCCN(C)Cc1nn2c(c1C1CCC(COC)(COC)CC1)CN(C(=O)C1(C)CCCO1)CC2` (stereo not drawn) [Example 57, (3-(4,4-bis(methoxymethyl)-cyclohexyl)-2-((methyl(2-(methylamino)ethyl)amino)-methyl)-6,7-dihydropyrazolo-[1,5-a]pyrazin-5(4H)-yl)(2-methyltetrahydrofuran-2-yl)-methanone], for which the pIC50 is 6.57 at PRMT1 [1], 6.77 in the experiment on DOHH2 cells and 7.10 at PRMT1 [2].

`CNCCN(C)Cc1nn2c(c1C1CCC(COC)(COC)CC1)CN(C(=O)C(C)(C)F)CC2` [Example 59, 1-(3-(4,4-bis(methoxy-methyl)cyclohexyl)-2-((methyl(2-(methylamino)-ethyl)amino)methyl)-6,7-dihydropyrazolo[1,5-a]-pyrazin-5(4H)-yl)-2-fluoro-2-methylpropan-1-one]: the pIC50 was 6.75 on PRMT1 [1], 6.95 in the experiment on DOHH2 cells and 7.32 on PRMT1 [2].

As for `COCC1(COC)CCC(c2c(CN(C)CCN)nn3c2CN(C(=O)C2CC(C(F)(F)F)C2)CC3)CC1` (stereo not drawn) [Example 62, (2-(((2-aminoethyl)(methyl)-amino)methyl)-3-(4,4-bis-(methoxymethyl)cyclohexyl)-6,7-dihydropyrazolo[1,5-a]-pyrazin-5(4H)-yl)(3-(trifluoromethyl)cyclobutyl)-methanone], the pIC50 on PRMT1 [1] was 5.86; in the experiment on DOHH2 cells it was 7.12; at PRMT1 [2], 7.64.

As to `CNCCN(C)Cc1nn2c(c1C1CCC(COC)(COC)CC1)CN(C(=O)C1(C(C)C)CCC1)CC2` [Example 64, (3-(4,4-bis(methoxymethyl)-cyclohexyl)-2-((methyl(2-(methylamino)ethyl)amino)-methyl)-6,7-dihydropyrazolo-[1,5-a]pyrazin-5(4H)-yl)(1-isopropylcyclobutyl)-methanone], the results for the pIC50 on PRMT1 [1], in the experiment on DOHH2 cells and on PRMT1 [2] were 5.63, 6.64 and 6.95, respectively.

Regarding `CCC(C)C(=O)N1CCn2nc(CN(C)CCNC)c(C3CCC(COC)(COC)CC3)c2C1` (stereo not drawn) [Example 65, 1-(3-(4,4-bis(methoxy-methyl)cyclohexyl)-2-((methyl(2-(methylamino)-ethyl)amino)methyl)-6,7-dihydropyrazolo[1,5-a]-pyrazin-5(4H)-yl)-2-methylbutan-1-one], the pIC50 is 6.27 on PRMT1 [1], 6.87 in the experiment with DOHH2 cells and 7.15 at PRMT1 [2].

For the molecule `CNCCN(C)Cc1nn2c(c1C1CCC(COC)(COC)CC1)CN(C(=O)C1CC(C(F)F)C1)CC2` (stereo not drawn) [Example 66, (3-(4,4-bis(methoxymethyl)-cyclohexyl)-2-((methyl(2-(methylamino)ethyl)amino)-methyl)-6,7-dihydropyrazolo-[1,5-a]pyrazin-5(4H)-yl)(3-(difluoromethyl)cyclobutyl)-methanone], the pIC50 was 6.02 at PRMT1 [1], 6.82 with DOHH2 cells and 7.28 at PRMT1 [2].
